Here are results for one substance from patent US8987481B1, “Method for isolation of bulk anthocyanidins and other bioactives” (priority 2013, dated 2015).

The series in a line: Storage stability of isolated anthocyanidins. Format: physicochemical. The method, then: The isolated anthos are stable when stored in amber bottles under argon at −20° C. […] However, when bound to cellulose, these compounds can be stabilized for a long period of time. Edible cellulose formulations that are used routinely in beverage and food industries are commercially available. Therefore, anthos isolated by the method described here can be readily stabilized with edible cellulose or pectin or other edible materials and used in beverages and foods to provide natural colors, as well as used as nutraceuticals and provide health benefits due to known antioxidant, antiproliferative and anticancer activities of anthos.

With anthocyanins, the “stability in solution form” value is “highly unstable”.
